For one assay, the system named is HT29 cells. The assay can be described thus: Peptide binding to colorectal cancer cells on confocal microscopy (HT29). The following applies: HT29, 5 μM, 3 min. Format: cell-based, human. The procedure:
(§1) HT29, SW480, and SW620 cells (˜10^3) were grown on cover slips to ˜80% confluence. The cells were washed 1× with PBS and incubated with 5 μM of QRH*-Cy5.5 and PEH*-Cy5.5 for 3 min at RT. The cells were then washed 3× in PBS, fixed with 4% paraformaldehyde (PFA) for 5 min, washed 1× with PBS, and then mounted on glass slides with ProLong Gold reagent containing DAPI (Invitrogen). Confocal fluorescence images were collected with FITC, Cy5.5, and DAPI filters (Leica Inverted SPSX Confocal Microscope System) using a 63× oil-immersion objective. Fluorescence intensities from 5 cells in 2 independent images were quantified using custom Matlab (Mathworks) software.
We assessed binding of QRH*-Cy5.5 to a panel of colorectal cancer cells that vary in EGFR expression level on confocal microscopy. We observed binding of QRH*-Cy5.5 to the surface (arrows) of HT29, SW480, and SW620 cells with decreasing strength, FIG. 3A-C, scale bars 30 μm. […] Results are an average of 10 cells from 2 independent images. EGFR expression is shown on Western blot, FIG. 3H.

Assay [1] concerns high-grade dysplasia in human esophagus. Briefly: Binding of QRH*-Cy5.5 to high-grade dysplasia in human esophagus.
For the next assay, the target named is EGFR (Homo sapiens, UniProt P00533). The assay can be described thus: siRNA knockdown of EGFR in HT29 cells, confocal fluorescence microscopy. Format: cell-based. Also noted: endogenous in cells; host or cells: HT29 human colorectal adenocarcinoma cells (ATCC). The method, then:
as §1
We used siRNA to knockdown expression of EGFR in HT29 cells. We used ON-TARGETplus human EGFR siRNA and ON-TARGETplus non-targeting pool (Thermo Scientific) per manufacturer's protocol. 5 μL of siRNA at 5 μM/L concentration was transfected into HT29 cells using DharmaFECT (Thermo Scientific). QRH*-Cy5.5 and PEH*-Cy5.5 were incubated with HT29 siEGFR and siCL cells. The cells were fixed with either 4% PFA or methanol. A 1:1000 dilution of primary monoclonal mouse anti-EGFR antibody (Thermo Scientific, # MS-396, clone 199.12, IgG2a isotype) was incubated overnight at 4° C. Afterwards, the cells were washed 3× with PBS, and further incubated with 1:500 dilution of AF488-labeled secondary goat anti-mouse IgG antibody (Life Technologies, # A-11029) for 1 hour at RT, washed 3×, and then mounted on glass slides with ProLong Gold reagent containing DAPI (Invitrogen). Confocal fluorescence images were collected with FITC, Cy5.5, and DAPI filters using a 63× oil-immersion objective.
We validated specific binding of QRH*-Cy5.5 to EGFR on siRNA knockdown in HT29 cells. On confocal microscopy, QRH*-Cy5.5 (red), FIG. 2A, and AF488-labeled anti-EGFR (green), FIG. 2B, bind strongly to the surface (arrows) of control HT29 cells (transfected with siCL, non-targeting siRNA), scale bars 30 μm. […] The results (mean±std) for QRH*-Cy5.5, anti-EGFR AF488, and PEH*-Cy5.5 to control cells (siCL) were 7.8±1.7, 3.1±1.0, and 1.6±0.3 AU, respectively, and to EGFR knockdown cells (siEGFR) were 2.5±0.8, 1.0±0.4, and 1.9±0.7 AU, respectively, *P<0.01 by paired t-test, FIG. 2G. Results are an average of 10 cells from 2 images performed independently. EGFR expression is shown on Western blot, FIG. 12H.

For the substance “QRHKPRE (SEQ ID NO: 1) with Cy5.5 fluorophore attached via a GGGSK linker (SEQ ID NO: 18) on the C-terminus [QRH*-Cy5.5]”, the “fluorescence intensity of binding (mean±std)” value in the assay on HT29 cells came to 3.6±0.6. In assay [1], the “staining of high-grade dysplasia (HGD)” value is given as “Intense staining”. For the same substance, the “fluorescence intensity (mean±std)” value was determined as 2.5±0.8 AU at EGFR (EGFR knockdown HT29 cells (siEGFR)) and 7.8±1.7 AU at EGFR (control HT29 cells (siCL, non-targeting siRNA)).

(Values after US20200102349A1, “PEPTIDE REAGENTS AND METHODS FOR DETECTION AND TARGETING OF DYSPLASIA, EARLY CANCER AND CANCER” (THE REGENTS OF THE UNIVERSITY OF MICHIGAN, priority 2014, published 2020).)
